biological target: not listed separately; assay: Inhibition of acetylation of histone-4 in human T-24 cancer cells

EC50 [µM] | Compound
5 | O=C(CCc1ccc(NS(=O)(=O)c2ccccc2)cc1)NO [US8796330, 38]
> 25 | O=C(CCCc1ccc(NS(=O)(=O)c2ccccc2)cc1)NO [US8796330, 42]
> 25 | CC(C)C(Cc1ccc(NS(=O)(=O)c2ccccc2)cc1)C(=O)NO (stereo not given) [US8796330, 81]
1 | COc1ccc(S(=O)(=O)Nc2ccc(/C=C/C(=O)NO)cc2)cc1OC [US8796330, 90]
> 25 | C/C(=C\c1ccc(NS(=O)(=O)c2ccccc2)cc1)C(=O)NO [US8796330, 91]
10 | Cc1ccc(S(=O)(=O)Nc2ccc(/C=C/C(=O)NO)cc2)cc1 [US8796330, 108]
5 | COc1ccc(S(=O)(=O)Nc2ccc(/C=C/C(=O)NO)cc2)cc1 [US8796330, 113]
1 | O=C(/C=C/c1ccc(NS(=O)(=O)c2ccc(-c3ccccc3)cc2)cc1)NO [US8796330, 120]
1 | Cc1ccc(NS(=O)(=O)c2ccc(/C=C/C(=O)NO)cc2)cc1 [US8796330, 161]

Further lines, the compound ahead of its results:

Compound | EC50 [µM]
CN(c1ccc(/C=C/C(=O)NO)cc1)S(=O)(=O)c1ccccc1 | > 25
O=C(/C=C/c1ccc(S(=O)(=O)Nc2ccc(-c3ccccc3)cc2)cc1)NO | 1
COc1ccc(NC(=O)Nc2ccc(/C=C/C(=O)NO)cc2)cc1OC | > 25
O=C(Cc1ccc(NS(=O)(=O)c2ccccc2)cc1)NO [2-(4-Benzenesulfonylamino-phenyl)-N-hydroxy-acetamide] | > 25
CC(Cc1ccc(NS(=O)(=O)c2ccccc2)cc1)C(=O)NO (stereo not given) [3-(4-Benzenesulfonylamino-phenyl)-N-hydroxy-2-methyl-propionamide] | > 25
O=C(NO)c1ccc(NS(=O)(=O)c2ccccc2)cc1 [4-Benzenesulfonylamino-N-hydroxy-benzamide] | 5

biological target: Histone deacetylase; assay: Inhibitory concentration determined against Histone deacetylase from Eimeria tenella

IC50 [µM] | Compound
0.004 | CCC(C)[C@@H]1NC(=O)[C@H](Cc2cn(OC)c3ccccc23)NC(=O)[C@H](CCCCCC(=O)NO)NC(=O)[C@H]2CCCCN2C1=O (stereo partly drawn) [6-[(6S,9S,12S,14aR)-6-sec-Butyl-9-(1-methoxy-1H-indol-3-ylmethyl)-5,8,11,14-tetraoxo-tetradecahydro-4a,7,10,13-tetraaza-benzocyclododecen-12-yl]-hexanoic acid hydroxyamide]
0.0008 | CCC(C)[C@@H]1NC(=O)[C@H](Cc2cn(OC)c3ccccc23)NC(=O)[C@H](CCCCCC(=O)OC)NC(=O)[C@H]2CCCCN2C1=O (stereo partly drawn) [6-[(6S,9S,12S,14aR)-6-sec-Butyl-9-(1-methoxy-1H-indol-3-ylmethyl)-5,8,11,14-tetraoxo-tetradecahydro-4a,7,10,13-tetraaza-benzocyclododecen-12-yl]-hexanoic acid methyl ester]
0.001 | CCC(C)[C@@H]1NC(=O)[C@H](Cc2cn(OC)c3ccccc23)NC(=O)[C@H](CCCCCC(=O)C2CO2)NC(=O)[C@H]2CCCCN2C1=O (stereo partly drawn) [(6S,9S,12S,14aR)-6-sec-Butyl-9-(1-methoxy-1H-indol-3-ylmethyl)-12-(6-oxiranyl-6-oxo-hexyl)-decahydro-4a,7,10,13-tetraaza-benzocyclododecene-5,8,11,14-tetraone]
0.004 | CCC(C)[C@@H]1NC(=O)[C@H](Cc2cn(OC)c3ccccc23)NC(=O)[C@H](CCCCCC(=O)C(C)O)NC(=O)[C@H]2CCCCN2C1=O (stereo partly drawn) [(6S,9S,12S,14aR)-6-sec-Butyl-12-(7-hydroxy-6-oxo-octyl)-9-(1-methoxy-1H-indol-3-ylmethyl)-decahydro-4a,7,10,13-tetraaza-benzocyclododecene-5,8,11,14-tetraone]

Compound | IC50 [µM]
CCC(C)[C@@H]1NC(=O)[C@H](Cc2cn(OC)c3ccccc23)NC(=O)[C@H](CCCCCC(=O)O)NC(=O)[C@H]2CCCCN2C1=O (stereo partly drawn) [6-[(6S,9S,12S,14aR)-6-sec-Butyl-9-(1-methoxy-1H-indol-3-ylmethyl)-5,8,11,14-tetraoxo-tetradecahydro-4a,7,10,13-tetraaza-benzocyclododecen-12-yl]-hexanoic acid] | 0.03

Reference: BindingDB's records for doi:10.1021/jm0303094 (Aton Pharma, 2003)
